Experimental data reported in US20240139162A1, “Benzophenanthridine Alkaloids and Their Methods of Use” (Chengdu Anticancer Bioscience, LTD., priority 2019, published 2024).
“Also recorded” adds a separate entry of the source.

How the values were obtained:
3T3 MEF cells = experiment: IC50 in 3T3 MEF cells (Table 2); format: cell-based; details: Mus musculus, MEF, 72 h, 3T3 MEF, treatment 72 h; read-out: IC50
Experimental: (§1) Cells were split, plated in appropriate culture media and allowed to adhere. After 18 hours, corynoline and acetylcorynoline were added to a cell line selected from below. At 72 h or 96 h, MTT was added and at 75 h or 99 h, the A570 nm was recorded. The concentration ranged from 0.02 μM to 40 μM.
The effect of the compounds chelidonine and protopine on cell division was assessed similarly to corynoline and acetylcorynoline above. As described in Example 6 above, as cells enter and become arrested in mitosis, they detach from the plate surface and appear as rounded cells with a smooth surface membrane. RPE-MBC cells (ectopically expressing oncogenes MYC and Bcl2) were treated with DMSO, chelidonine and protopine, and compared against controls Michael's ketone (MK) and taxol.

[1] = test system: Rat1A cell lines (Rat1A C, Rat1A MYC, Rat1A E2F1, Rat1A E2F3); experiment: MTT assay, Rat1A cell lines expressing oncogenes; format: cell-based; details: Rat1A cell lines compared to Rat1A C (FIG. 12)
Experimental: as §1
The following Rat1A cell lines were used in these studies: Rat1 A C, Rat1A MYC, Rat1A E2F1, and Rat1A E2F3. The cell line was then engineered as control (C), to overexpress the MYC oncogene (Rat1A-MYC), to overexpress the E2F1 oncogene (Rat1A-E2F1), or to overexpress the E2F3 oncogene (Rat1A-E2F3).

RPE-MBC cells = experiment: Mitotic arrest (cell round-up, phospho-Histone H3) and polyploidy (DAPI) assay; format: cell-based, human
Experimental: For screening for bioactive fractions, cells were cultured in 96-well plates, and exposed to crude extracts, partially purified fractions or pure compounds at the concentrations indicated in the figure legends. Exposure was for 24 or 48 hours before analysis of cells for either an arrest in mitosis using an inverted microscope or for a change in DNA content after 4′,6′-diamidino-2-phenylindole (DAPI) staining by fluorescence microscopy.
(§2) Cells were cultured on coverslips in a 6-well plate, fixed with 4% paraformaldehyde and then permeabilized with 0.3% Triton X-100 in PBS. Primary antibody was detected with Texas-Red-conjugated secondary antibodies that were purchased from Jackson ImmunoResearch. After immunostaining, cells were mounted on microscope slides with 4′,6′-diamidino-2-phenylindole (DAPI)-containing Vectashield mounting solution (Vector Laboratories) for detection of fluorescence with an EVOS FL fluorescence microscope (ThermoFisher).
Cellular “round-up” was used as a surrogate marker for mitotic arrest and could easily be assayed using an inverted tissue culture microscope. […] Mitotic arrest was judged by cell round-up observed under an inverted tissue culture microscope 24 hours after exposing cells to the library.
As cells enter and become arrested in mitosis, they detach from the plate surface and appear as rounded cells with smooth surface membrane, distinct from detached cells that are undergoing programmed cell death. Simple visual screening method was used to assay thousands of extracts. […] To identify bioactive components that are able to interfere with mitosis, 3 kg of Corydalis longicalcarata rhizome were recollected and performed bioactivity-guided extraction, isolation, and purification. The air dried and powdered material was extracted with 70% ethanol assisted by exposure to ultrasonic waves.

aurora-B kinase = experiment: Phosphorylation of Histone 3 at Ser10 as surrogate of aurora-B kinase activity; format: cell-based
Experimental: as §2

CC(=O)O[C@H]1Cc2cc3c(cc2[C@H]2N(C)Cc4c(ccc5c4OCO5)[C@@]12C)OCO3 [Acetylcorynoline, (5bR,6S,12bR)-5b,6,7,12b,13,14-Hexahydro-5b,13-dimethyl-[1,3]benzodioxolo[5,6-c]-1,3-dioxolo[4,5-i]phenanthridin-6-ol 6-acetate]
IC50 (3T3 MEF cells): 23 µM | change of IC50 after overexpression of oncogenes [1]: all declined when compared to Rat1 A C | polyploidy compared to DMSO control (RPE-MBC cells; 10 μM and 20 μM, 48 hours): polyploidy was induced | mitotic arrest (RPE-MBC cells; 24 hours after treatment): can arrest mitosis within 24 hours of treatment; also recorded: Nearly all cells entered and arrested in mitosis | polyploidy (DAPI staining) (RPE-MBC cells; 48 hours after treatment): induce polyploidy at 48 hours; also recorded: induced polyploidy; also recorded: Polyploidy was observed; also recorded: demonstrates polyploidy | minimal effective concentration for mitotic arrest and polyploidy relative to corynoline (RPE-MBC cells; FIG. 15): 2 fold | mitotic arrest and polyploidy, dependence on concentration (RPE-MBC cells; FIG. 15): concentration-dependent | persistence of the arrest of cells in mitosis (RPE-MBC cells; within 48-hour treatment): transient | phosphorylation of Histone 3 at Ser10 (aurora-B kinase): not affected
